Measurements: ChEMBL document CHEMBL2073775, “Caco-2 permeability, P-glycoprotein transport ratios and brain penetration of heterocyclic drugs” (Int J Pharm, 2003)

The compounds below were run against ATP-dependent translocase ABCB1 (Homo sapiens, UniProt P08183) (assay: TP_TRANSPORTER: transepithelial transport in Caco-2 cells).
ATP-dependent translocase ABCB1, sequence (P08183 whole entry): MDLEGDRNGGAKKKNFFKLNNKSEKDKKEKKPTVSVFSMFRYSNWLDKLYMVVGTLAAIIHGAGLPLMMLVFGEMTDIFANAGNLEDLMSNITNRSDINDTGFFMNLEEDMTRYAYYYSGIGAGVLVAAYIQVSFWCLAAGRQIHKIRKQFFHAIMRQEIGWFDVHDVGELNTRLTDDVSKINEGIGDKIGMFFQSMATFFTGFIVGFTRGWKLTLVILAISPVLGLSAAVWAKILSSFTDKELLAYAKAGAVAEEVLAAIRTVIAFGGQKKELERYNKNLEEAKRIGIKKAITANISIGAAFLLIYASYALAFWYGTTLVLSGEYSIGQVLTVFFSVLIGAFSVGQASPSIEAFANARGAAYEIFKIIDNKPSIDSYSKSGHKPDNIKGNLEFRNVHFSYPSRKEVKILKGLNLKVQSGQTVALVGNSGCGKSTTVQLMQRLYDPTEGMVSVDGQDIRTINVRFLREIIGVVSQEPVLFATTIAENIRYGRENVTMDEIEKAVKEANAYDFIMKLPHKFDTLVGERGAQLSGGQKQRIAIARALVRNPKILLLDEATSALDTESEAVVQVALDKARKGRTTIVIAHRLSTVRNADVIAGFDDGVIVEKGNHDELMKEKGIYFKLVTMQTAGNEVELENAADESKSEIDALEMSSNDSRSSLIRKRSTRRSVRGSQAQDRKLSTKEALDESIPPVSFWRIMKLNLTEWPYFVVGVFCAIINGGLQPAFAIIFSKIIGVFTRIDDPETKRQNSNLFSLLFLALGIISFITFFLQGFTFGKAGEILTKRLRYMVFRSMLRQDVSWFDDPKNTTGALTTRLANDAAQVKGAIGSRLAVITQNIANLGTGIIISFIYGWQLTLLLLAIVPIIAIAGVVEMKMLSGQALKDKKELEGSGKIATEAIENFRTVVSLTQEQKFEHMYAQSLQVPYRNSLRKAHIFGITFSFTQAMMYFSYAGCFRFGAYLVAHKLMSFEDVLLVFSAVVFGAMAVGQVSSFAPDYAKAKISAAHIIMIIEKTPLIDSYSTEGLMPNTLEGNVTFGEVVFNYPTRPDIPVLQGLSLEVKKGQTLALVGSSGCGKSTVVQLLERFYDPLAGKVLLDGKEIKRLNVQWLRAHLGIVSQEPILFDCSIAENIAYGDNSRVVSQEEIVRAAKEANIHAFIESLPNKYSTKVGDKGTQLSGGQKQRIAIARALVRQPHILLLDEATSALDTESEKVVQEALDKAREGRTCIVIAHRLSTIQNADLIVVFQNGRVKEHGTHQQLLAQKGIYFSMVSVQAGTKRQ
Assay type: functional, cell-based
`CS(=O)(=O)O.O=C(CCCN1CCC(=C(c2ccc(F)cc2)c2ccc(F)cc2)CC1)N1CCCC1` was tested, and the Activity was “substrate [+]”. For `O=C(O)/C=C/C(=O)O.O=C1CCCN1CCCCN1CCN(c2cc(C(F)(F)F)ccn2)CC1`, the Activity was “substrate [+]”. For `CC1(C)CC(=O)N(CCCCN2CCN(c3ncccn3)CC2)C(=O)C1O.Cl` (configuration not stated), the Activity was “substrate [+]”. With `CN1CCC(=C(c2ccc(F)cc2)c2cc(Cl)cs2)CC1` the Activity was “substrate [+]”. `Cl.FC(F)(F)c1ccc(N2CCNCC2)nc1Cl` was tested, and the Activity was “substrate [+]”. In the case of `COc1cc2cc(C3=NNC(=O)CC3C)sc2cc1OC` (configuration not stated), the Activity is reported as “is not a substrate [-]”. `CN1CC2c3ccccc3Oc3ccc(Cl)cc3C2C1.O=C(O)/C=C\C(=O)O` (racemic) [ASENAPINE MALEATE] was tested, and the Activity was “substrate [+]”. For `C=CCC(N)c1ccccc1-c1noc2ccccc12.Cl` (single isomer, unassigned; (-)), the Activity was “substrate [+]”. With `CC(=O)Nc1ccc(O)cc1` [ACETAMINOPHEN] the Activity was “is not a substrate [-]”. In the case of `CN(C)CCC=C1c2ccccc2CCc2ccccc21` [AMITRIPTYLINE], the Activity is reported as “substrate [+]”. For `Cc1cc(=O)n(-c2ccccc2)n1C` [ANTIPYRINE], the Activity was “is not a substrate [-]”. `CC(=O)Oc1ccccc1C(=O)O` [ASPIRIN] was tested, and the Activity was “is not a substrate [-]”. `NC(=O)N1c2ccccc2C=Cc2ccccc21` [CARBAMAZEPINE] was tested, and the Activity was “is not a substrate [-]”. With `Clc1cccc(Cl)c1N=C1NCCN1` [CLONIDINE] the Activity was “substrate [+]”. `CC1(C)CC(=O)N(CCCCN2CCN(c3ncccn3)CC2)C(=O)C1.Cl` [GEPIRONE HYDROCHLORIDE] was tested, and the Activity was “substrate [+]”. For `CC(C)Cc1ccc(C(C)C(=O)O)cc1` (configuration not stated) [IBUPROFEN], the Activity was “is not a substrate [-]”. `COc1ccc2c(c1)c(CC(=O)O)c(C)n2C(=O)c1ccc(Cl)cc1` [INDOMETHACIN] was tested, and the Activity was “is not a substrate [-]”. In the case of `OC[C@@H](O)[C@@H](O)[C@H](O)[C@H](O)CO` [MANNITOL], the Activity is reported as “is not a substrate [-]”. `CNC(=C[N+](=O)[O-])NCCSCc1ccc(CN(C)C)o1` [RANITIDINE] was tested, and the Activity was “is not a substrate [-]”. `Cc1nc2n(c(=O)c1CCN1CCC(c3noc4cc(F)ccc34)CC1)CCCC2` [RISPERIDONE] was tested, and the Activity was “substrate [+]”. In the case of `O=C(O)c1ccccc1O` [SALICYLIC ACID], the Activity is reported as “is not a substrate [-]”. PEG 4000 was tested, and the Activity was “is not a substrate [-]”.
